Laboratory results from ChEMBL document CHEMBL5614375, “PepExplainer: An explainable deep learning model for selection-based macrocyclic peptide bioactivity prediction and optimization” (Eur J Med Chem, 2024).
Bridge positions count the residues as written; N and C are the ends. Peptide text beside a SMILES is read from it.

Target: T1, IL17-RE-IL-17C (Homo sapiens, UniProt Q8NFR9+Q9P0M4)
T1 sequence (Q9P0M4 whole entry): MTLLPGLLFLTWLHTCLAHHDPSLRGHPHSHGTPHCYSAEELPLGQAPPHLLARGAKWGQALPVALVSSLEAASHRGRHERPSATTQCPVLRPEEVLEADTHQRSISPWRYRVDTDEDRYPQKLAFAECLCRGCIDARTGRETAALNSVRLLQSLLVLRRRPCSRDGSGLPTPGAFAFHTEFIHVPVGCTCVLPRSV
T1 sequence (Q8NFR9 whole entry): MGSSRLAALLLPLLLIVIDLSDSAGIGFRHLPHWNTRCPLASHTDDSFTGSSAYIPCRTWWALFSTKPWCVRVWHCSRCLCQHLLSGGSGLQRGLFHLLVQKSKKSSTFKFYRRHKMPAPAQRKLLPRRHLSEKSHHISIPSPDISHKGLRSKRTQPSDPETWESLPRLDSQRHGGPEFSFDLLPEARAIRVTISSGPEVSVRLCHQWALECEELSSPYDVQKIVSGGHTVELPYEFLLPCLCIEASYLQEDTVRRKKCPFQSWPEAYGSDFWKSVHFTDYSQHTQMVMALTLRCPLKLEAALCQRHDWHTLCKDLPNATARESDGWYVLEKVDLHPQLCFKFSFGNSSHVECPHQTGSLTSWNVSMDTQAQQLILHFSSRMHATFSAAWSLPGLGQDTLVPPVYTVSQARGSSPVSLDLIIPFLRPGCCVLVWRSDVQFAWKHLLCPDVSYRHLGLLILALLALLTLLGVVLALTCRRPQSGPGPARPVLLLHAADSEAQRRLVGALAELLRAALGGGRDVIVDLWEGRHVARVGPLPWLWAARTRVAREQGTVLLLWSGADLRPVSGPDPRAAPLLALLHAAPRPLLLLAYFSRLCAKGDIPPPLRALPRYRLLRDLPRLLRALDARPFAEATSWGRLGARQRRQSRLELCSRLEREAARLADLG
Experiment: Inhibition of interleukin-17RE/biotinylated IL-17C protein-protein interaction (unknown origin) incubated for 1 hrs by competitive ELISA
Type: protein-complex assay

Structure (SMILES) | IC50
CC(C)C[C@@H]1NC(=O)[C@H](CC(=O)O)NC(=O)CNC(=O)[C@H](Cc2ccc(O)cc2)NC(=O)[C@H](CC(C)C)NC(=O)[C@H](CO)NC(=O)[C@H](CCCNC(=N)N)NC(=O)[C@H](Cc2c[nH]cn2)NC(=O)[C@H](Cc2ccc(O)cc2)NC(=O)[C@H](Cc2c[nH]cn2)NC(=O)[C@H](Cc2c[nH]cn2)NC(=O)[C@H](Cc2ccc(O)cc2)NC(=O)CSC[C@@H](C(=O)NCC(N)=O)NC(=O)CNC1=O ({CH2CO}-YHHYHRSLYGDLGCG-NH2; thioether N-14) | > 30000 nM
CC(C)C[C@@H]1NC(=O)[C@H](CC(=O)O)NC(=O)CNC(=O)[C@H](Cc2ccc(O)cc2)NC(=O)[C@H](CC(C)C)NC(=O)[C@H](CO)NC(=O)[C@H](CCCNC(=N)N)NC(=O)[C@H](Cc2ccc(O)cc2)NC(=O)[C@H](Cc2ccc(O)cc2)NC(=O)[C@H](Cc2c[nH]cn2)NC(=O)[C@H](CCC(N)=O)NC(=O)[C@H](Cc2ccc(O)cc2)NC(=O)CSC[C@@H](C(=O)NCC(N)=O)NC(=O)CNC1=O ({CH2CO}-YQHYYRSLYGDLGCG-NH2; thioether N-14) | > 30000 nM
CC[C@H](C)[C@@H]1NC(=O)[C@H](CCCNC(=N)N)NC(=O)[C@H](Cc2ccc(O)cc2)NC(=O)[C@H](Cc2ccc(O)cc2)NC(=O)[C@H](CCCNC(=N)N)NC(=O)[C@H](Cc2c[nH]cn2)NC(=O)[C@H](Cc2ccc(O)cc2)NC(=O)CSC[C@@H](C(=O)NCC(N)=O)NC(=O)CNC(=O)[C@H](CC(C)C)NC(=O)[C@H](CCC(=O)O)NC(=O)CNC(=O)[C@H](Cc2ccc(O)cc2)NC(=O)[C@H](CC(C)C)NC1=O ({CH2CO}-YHRYYRILYGELGCG-NH2; thioether N-14) | 108 nM
CC[C@H](C)[C@@H]1NC(=O)[C@H](CCCNC(=N)N)NC(=O)[C@H](Cc2ccc(O)cc2)NC(=O)[C@H](Cc2ccc(O)cc2)NC(=O)[C@H](Cc2c[nH]cn2)NC(=O)[C@H](Cc2c[nH]cn2)NC(=O)[C@H](Cc2ccc(O)cc2)NC(=O)CSC[C@@H](C(=O)NCC(N)=O)NC(=O)CNC(=O)[C@H](CC(C)C)NC(=O)[C@H](CCC(=O)O)NC(=O)CNC(=O)[C@H](Cc2ccc(O)cc2)NC(=O)[C@H](Cc2ccccc2)NC1=O ({CH2CO}-YHHYYRIFYGELGCG-NH2; thioether N-14) | 23300 nM
CC(C)C[C@@H]1NC(=O)[C@H](CC(=O)O)NC(=O)CNC(=O)[C@H](Cc2ccc(O)cc2)NC(=O)[C@H](CC(C)C)NC(=O)[C@H](CO)NC(=O)[C@H](CCCNC(=N)N)NC(=O)[C@H](Cc2ccc(O)cc2)NC(=O)[C@H](CC(N)=O)NC(=O)[C@H](Cc2c[nH]cn2)NC(=O)[C@H](Cc2c[nH]cn2)NC(=O)[C@H](Cc2ccc(O)cc2)NC(=O)CSC[C@@H](C(=O)NCC(N)=O)NC(=O)CNC1=O ({CH2CO}-YHHNYRSLYGDLGCG-NH2; thioether N-14) | > 30000 nM
CC[C@H](C)[C@@H]1NC(=O)[C@H](CCCCN)NC(=O)[C@H](Cc2ccc(O)cc2)NC(=O)[C@H](Cc2ccc(O)cc2)NC(=O)[C@H](Cc2c[nH]cn2)NC(=O)[C@H](Cc2c[nH]cn2)NC(=O)[C@H](Cc2ccc(O)cc2)NC(=O)CSC[C@@H](C(=O)NCC(N)=O)NC(=O)CNC(=O)[C@H](CC(C)C)NC(=O)[C@H](CCC(=O)O)NC(=O)CNC(=O)[C@H](Cc2ccc(O)cc2)NC(=O)[C@H](CC(C)C)NC1=O ({CH2CO}-YHHYYKILYGELGCG-NH2; thioether N-14) | 116 nM
CC[C@H](C)[C@@H]1NC(=O)[C@H](CCCNC(=N)N)NC(=O)[C@H](Cc2ccc(O)cc2)NC(=O)[C@H](Cc2ccc(O)cc2)NC(=O)[C@H](Cc2ccc(O)cc2)NC(=O)[C@H](Cc2c[nH]cn2)NC(=O)[C@H](Cc2ccc(O)cc2)NC(=O)CSC[C@@H](C(=O)NCC(N)=O)NC(=O)CNC(=O)[C@H](CC(C)C)NC(=O)[C@H](CCC(=O)O)NC(=O)CNC(=O)[C@H](Cc2ccc(O)cc2)NC(=O)[C@H](CC(C)C)NC1=O ({CH2CO}-YHYYYRILYGELGCG-NH2; thioether N-14) | 119 nM
CC[C@H](C)[C@@H]1NC(=O)[C@H](CCCNC(=N)N)NC(=O)[C@H](Cc2ccc(O)cc2)NC(=O)[C@H](Cc2ccc(O)cc2)NC(=O)[C@H](CCCCN)NC(=O)[C@H](Cc2c[nH]cn2)NC(=O)[C@H](Cc2ccc(O)cc2)NC(=O)CSC[C@@H](C(=O)NCC(N)=O)NC(=O)CNC(=O)[C@H](CC(C)C)NC(=O)[C@H](CCC(=O)O)NC(=O)CNC(=O)[C@H](Cc2ccc(O)cc2)NC(=O)[C@H](CC(C)C)NC1=O ({CH2CO}-YHKYYRILYGELGCG-NH2; thioether N-14) | 89 nM
CC[C@H](C)[C@@H]1NC(=O)[C@H](CC(N)=O)NC(=O)[C@H](Cc2ccc(O)cc2)NC(=O)[C@H](Cc2ccc(O)cc2)NC(=O)[C@H](Cc2c[nH]cn2)NC(=O)[C@H](Cc2c[nH]cn2)NC(=O)[C@H](Cc2ccc(O)cc2)NC(=O)CSC[C@@H](C(=O)NCC(N)=O)NC(=O)CNC(=O)[C@H](CC(C)C)NC(=O)[C@H](CCC(=O)O)NC(=O)CNC(=O)[C@H](Cc2ccc(O)cc2)NC(=O)[C@H](CC(C)C)NC1=O ({CH2CO}-YHHYYNILYGELGCG-NH2; thioether N-14) | 2360 nM

The next molecules have a lower IC50 than those just listed; values first:

IC50 | Structure (SMILES)
73 nM | CC[C@H](C)[C@@H]1NC(=O)[C@H](CCCNC(=N)N)NC(=O)[C@H](Cc2ccc(O)cc2)NC(=O)[C@H](Cc2ccc(O)cc2)NC(=O)[C@H](Cc2c[nH]cn2)NC(=O)[C@H](Cc2c[nH]cn2)NC(=O)[C@H](Cc2ccc(O)cc2)NC(=O)CSC[C@@H](C(=O)NCC(N)=O)NC(=O)CNC(=O)[C@H](CC(C)C)NC(=O)[C@H](CCCCN)NC(=O)CNC(=O)[C@H](Cc2ccc(O)cc2)NC(=O)[C@H](CC(C)C)NC1=O ({CH2CO}-YHHYYRILYGKLGCG-NH2; thioether N-14)
83 nM | CC[C@H](C)[C@@H]1NC(=O)[C@H](CCCNC(=N)N)NC(=O)[C@H](Cc2ccc(O)cc2)NC(=O)[C@H](Cc2ccc(O)cc2)NC(=O)[C@H](Cc2c[nH]cn2)NC(=O)[C@H](Cc2c[nH]cn2)NC(=O)[C@H](Cc2ccc(O)cc2)NC(=O)CSC[C@@H](C(=O)NCC(N)=O)NC(=O)CNC(=O)[C@H](CC(C)C)NC(=O)[C@H](CC(=O)O)NC(=O)CNC(=O)[C@H](Cc2ccc(O)cc2)NC(=O)[C@H](CC(C)C)NC1=O ({CH2CO}-YHHYYRILYGDLGCG-NH2; thioether N-14)
68 nM | CC[C@H](C)[C@@H]1NC(=O)[C@H](CCCNC(=N)N)NC(=O)[C@H](Cc2ccc(O)cc2)NC(=O)[C@H](Cc2ccc(O)cc2)NC(=O)[C@H](CC(C)C)NC(=O)[C@H](Cc2c[nH]cn2)NC(=O)[C@H](Cc2ccc(O)cc2)NC(=O)CSC[C@@H](C(=O)NCC(N)=O)NC(=O)CNC(=O)[C@H](CC(C)C)NC(=O)[C@H](CCC(=O)O)NC(=O)CNC(=O)[C@H](Cc2ccc(O)cc2)NC(=O)[C@H](CC(C)C)NC1=O ({CH2CO}-YHLYYRILYGELGCG-NH2; thioether N-14)
1.7 nM | CC[C@H](C)[C@@H]1NC(=O)[C@H](Cc2c[nH]cn2)NC(=O)[C@H](Cc2ccc(O)cc2)NC(=O)CSC[C@@H](C(=O)NCC(N)=O)NC(=O)CNC(=O)[C@H](CC(C)C)NC(=O)[C@H](CC(=O)O)NC(=O)CNC(=O)[C@H](Cc2ccc(O)cc2)NC(=O)[C@H](CC(C)C)NC(=O)[C@H](CO)NC(=O)[C@H](CCCNC(=N)N)NC(=O)[C@H](Cc2ccc(O)cc2)NC(=O)[C@H](Cc2ccc(O)cc2)NC1=O ({CH2CO}-YHIYYRSLYGDLGCG-NH2; thioether N-14)
